According to ChEMBL document CHEMBL2417402, “Development and therapeutic implications of selective histone deacetylase 6 inhibitors” (J Med Chem, 2013):

Legend:
Histone deacetylase 4 = Histone deacetylase 4 (Homo sapiens, UniProt P56524); experiment: Inhibition of HDAC4 (unknown origin)
Histone deacetylase 5 = Histone deacetylase 5 (Homo sapiens, UniProt Q9UQL6); experiment: Inhibition of HDAC5 (unknown origin)
[1] = molecular target: T1, Protein deacetylase HDAC6 (Homo sapiens, UniProt Q9UBN7); experiment: Inhibition of HDAC6 (unknown origin)
T1 sequence (Q9UBN7 whole entry): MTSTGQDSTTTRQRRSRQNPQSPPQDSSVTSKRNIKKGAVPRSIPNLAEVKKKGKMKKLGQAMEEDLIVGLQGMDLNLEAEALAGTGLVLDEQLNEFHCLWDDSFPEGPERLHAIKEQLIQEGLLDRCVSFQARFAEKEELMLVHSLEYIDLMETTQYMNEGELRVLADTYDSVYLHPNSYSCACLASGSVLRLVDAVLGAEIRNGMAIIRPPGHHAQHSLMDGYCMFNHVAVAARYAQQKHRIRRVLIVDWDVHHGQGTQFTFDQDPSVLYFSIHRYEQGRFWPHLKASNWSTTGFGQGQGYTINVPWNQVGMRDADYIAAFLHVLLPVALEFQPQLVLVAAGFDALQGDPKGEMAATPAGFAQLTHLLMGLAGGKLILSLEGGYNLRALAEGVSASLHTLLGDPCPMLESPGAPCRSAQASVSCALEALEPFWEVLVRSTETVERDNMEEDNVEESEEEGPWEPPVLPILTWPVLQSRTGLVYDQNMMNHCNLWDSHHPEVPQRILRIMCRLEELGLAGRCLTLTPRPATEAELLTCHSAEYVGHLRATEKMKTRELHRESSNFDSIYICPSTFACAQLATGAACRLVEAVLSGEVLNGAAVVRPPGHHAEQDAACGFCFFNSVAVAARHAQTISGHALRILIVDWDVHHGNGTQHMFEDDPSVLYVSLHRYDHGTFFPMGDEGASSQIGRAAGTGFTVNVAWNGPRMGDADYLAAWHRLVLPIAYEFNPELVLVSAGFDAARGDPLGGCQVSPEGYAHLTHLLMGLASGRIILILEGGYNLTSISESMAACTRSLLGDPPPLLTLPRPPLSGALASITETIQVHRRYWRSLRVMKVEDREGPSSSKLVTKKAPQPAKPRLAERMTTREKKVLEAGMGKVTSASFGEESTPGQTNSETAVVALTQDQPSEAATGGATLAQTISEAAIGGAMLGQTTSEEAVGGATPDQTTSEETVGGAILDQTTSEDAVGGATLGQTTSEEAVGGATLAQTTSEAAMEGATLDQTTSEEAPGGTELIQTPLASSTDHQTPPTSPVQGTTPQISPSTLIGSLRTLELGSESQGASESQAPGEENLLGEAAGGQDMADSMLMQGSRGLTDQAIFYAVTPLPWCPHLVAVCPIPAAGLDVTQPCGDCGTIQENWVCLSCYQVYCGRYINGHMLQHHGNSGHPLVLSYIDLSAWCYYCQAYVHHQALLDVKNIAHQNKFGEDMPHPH

Histone deacetylase 1 [2] = molecular target: T2, Histone deacetylase 1 (Homo sapiens, UniProt Q13547); experiment: Inhibition of HDAC1 (unknown origin)
Histone deacetylase 2 [3] = molecular target: T3, Histone deacetylase 2 (Homo sapiens, UniProt Q92769); experiment: Inhibition of HDAC2 (unknown origin)
Histone deacetylase 3 [4] = molecular target: T4, Histone deacetylase 3 (Homo sapiens, UniProt O15379); experiment: Inhibition of HDAC3 (unknown origin) using carboxyfluorescein (FAM)-labeled acetylated peptide as substrate after 17 hrs by fluorescence-based electrophoretic assay
Histone deacetylase 2 [5] = molecular target: T3, Histone deacetylase 2; experiment: Inhibition of HDAC2 (unknown origin) using carboxyfluorescein (FAM)-labeled acetylated peptide as substrate after 17 hrs by fluorescence-based electrophoretic assay
Histone deacetylase 1 [6] = molecular target: T2, Histone deacetylase 1; experiment: Inhibition of HDAC1 (unknown origin) using carboxyfluorescein (FAM)-labeled acetylated peptide as substrate after 17 hrs by fluorescence-based electrophoretic assay
Histone deacetylase 8 = molecular target: T5, Histone deacetylase 8 (Homo sapiens, UniProt Q9BY41); experiment: Inhibition of HDAC8 (unknown origin); details: read-out: Kd(app)
T5 sequence (Q9BY41 whole entry): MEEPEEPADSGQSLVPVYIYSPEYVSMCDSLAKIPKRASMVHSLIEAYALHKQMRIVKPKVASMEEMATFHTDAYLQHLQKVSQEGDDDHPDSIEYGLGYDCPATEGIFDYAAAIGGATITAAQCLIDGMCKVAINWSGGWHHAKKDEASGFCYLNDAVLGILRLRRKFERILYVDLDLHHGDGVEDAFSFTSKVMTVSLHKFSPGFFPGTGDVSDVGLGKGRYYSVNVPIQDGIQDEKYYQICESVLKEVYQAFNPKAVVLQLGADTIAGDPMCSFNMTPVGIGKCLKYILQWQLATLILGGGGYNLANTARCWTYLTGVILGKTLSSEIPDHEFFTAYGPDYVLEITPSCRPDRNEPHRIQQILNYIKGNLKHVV

Histone deacetylase 3 [7] = molecular target: T4, Histone deacetylase 3; experiment: Inhibition of HDAC3 (unknown origin); details: read-out: Kd(app)
[8] = molecular target: T6, Polyamine deacetylase HDAC10 (Homo sapiens, UniProt Q969S8); experiment: Inhibition of HDAC10 (unknown origin)
T6 sequence (Q969S8 whole entry): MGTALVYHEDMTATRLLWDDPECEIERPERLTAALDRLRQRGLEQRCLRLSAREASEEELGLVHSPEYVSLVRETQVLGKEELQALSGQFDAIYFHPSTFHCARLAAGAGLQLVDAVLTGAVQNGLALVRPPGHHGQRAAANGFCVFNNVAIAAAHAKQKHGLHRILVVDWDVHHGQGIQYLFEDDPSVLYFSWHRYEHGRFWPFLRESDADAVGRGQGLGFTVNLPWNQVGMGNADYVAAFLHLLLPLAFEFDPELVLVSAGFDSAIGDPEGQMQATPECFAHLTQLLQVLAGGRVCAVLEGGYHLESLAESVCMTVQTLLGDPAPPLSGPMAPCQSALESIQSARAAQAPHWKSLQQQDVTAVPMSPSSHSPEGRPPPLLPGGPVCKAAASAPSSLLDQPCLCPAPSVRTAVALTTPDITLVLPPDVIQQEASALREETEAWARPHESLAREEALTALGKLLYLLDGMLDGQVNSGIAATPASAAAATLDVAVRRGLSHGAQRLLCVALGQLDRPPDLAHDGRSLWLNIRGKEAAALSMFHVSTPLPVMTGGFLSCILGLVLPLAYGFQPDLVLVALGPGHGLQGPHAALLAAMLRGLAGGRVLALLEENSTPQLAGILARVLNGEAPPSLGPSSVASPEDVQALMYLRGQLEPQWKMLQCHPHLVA

T2 sequence (Q13547 whole entry): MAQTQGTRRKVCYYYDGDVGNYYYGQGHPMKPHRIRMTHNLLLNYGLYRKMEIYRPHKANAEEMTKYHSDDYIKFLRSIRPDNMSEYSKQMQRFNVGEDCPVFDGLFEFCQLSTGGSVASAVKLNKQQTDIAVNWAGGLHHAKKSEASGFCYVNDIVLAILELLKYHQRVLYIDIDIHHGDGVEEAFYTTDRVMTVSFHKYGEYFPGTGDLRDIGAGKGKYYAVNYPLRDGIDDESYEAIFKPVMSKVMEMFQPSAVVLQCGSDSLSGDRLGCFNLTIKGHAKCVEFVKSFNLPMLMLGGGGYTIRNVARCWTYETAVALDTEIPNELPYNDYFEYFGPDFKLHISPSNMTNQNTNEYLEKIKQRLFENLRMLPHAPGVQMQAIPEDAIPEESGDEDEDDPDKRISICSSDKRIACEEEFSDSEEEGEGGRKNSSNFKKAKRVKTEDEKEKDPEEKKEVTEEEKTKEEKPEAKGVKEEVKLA
T3 sequence (Q92769 whole entry): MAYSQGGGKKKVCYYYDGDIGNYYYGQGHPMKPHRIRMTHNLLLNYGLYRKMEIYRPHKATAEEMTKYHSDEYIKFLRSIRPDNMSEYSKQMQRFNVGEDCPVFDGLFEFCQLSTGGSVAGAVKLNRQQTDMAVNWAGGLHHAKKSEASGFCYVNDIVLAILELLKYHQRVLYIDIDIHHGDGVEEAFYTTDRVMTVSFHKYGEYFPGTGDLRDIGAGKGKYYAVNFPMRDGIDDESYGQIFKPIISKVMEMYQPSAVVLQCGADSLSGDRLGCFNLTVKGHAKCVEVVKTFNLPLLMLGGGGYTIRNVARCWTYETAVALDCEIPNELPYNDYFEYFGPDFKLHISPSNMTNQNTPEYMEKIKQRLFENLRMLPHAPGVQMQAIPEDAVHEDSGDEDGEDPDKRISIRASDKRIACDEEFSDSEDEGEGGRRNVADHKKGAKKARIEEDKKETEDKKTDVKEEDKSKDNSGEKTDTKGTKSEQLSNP
Histone deacetylase 4, sequence (P56524 whole entry): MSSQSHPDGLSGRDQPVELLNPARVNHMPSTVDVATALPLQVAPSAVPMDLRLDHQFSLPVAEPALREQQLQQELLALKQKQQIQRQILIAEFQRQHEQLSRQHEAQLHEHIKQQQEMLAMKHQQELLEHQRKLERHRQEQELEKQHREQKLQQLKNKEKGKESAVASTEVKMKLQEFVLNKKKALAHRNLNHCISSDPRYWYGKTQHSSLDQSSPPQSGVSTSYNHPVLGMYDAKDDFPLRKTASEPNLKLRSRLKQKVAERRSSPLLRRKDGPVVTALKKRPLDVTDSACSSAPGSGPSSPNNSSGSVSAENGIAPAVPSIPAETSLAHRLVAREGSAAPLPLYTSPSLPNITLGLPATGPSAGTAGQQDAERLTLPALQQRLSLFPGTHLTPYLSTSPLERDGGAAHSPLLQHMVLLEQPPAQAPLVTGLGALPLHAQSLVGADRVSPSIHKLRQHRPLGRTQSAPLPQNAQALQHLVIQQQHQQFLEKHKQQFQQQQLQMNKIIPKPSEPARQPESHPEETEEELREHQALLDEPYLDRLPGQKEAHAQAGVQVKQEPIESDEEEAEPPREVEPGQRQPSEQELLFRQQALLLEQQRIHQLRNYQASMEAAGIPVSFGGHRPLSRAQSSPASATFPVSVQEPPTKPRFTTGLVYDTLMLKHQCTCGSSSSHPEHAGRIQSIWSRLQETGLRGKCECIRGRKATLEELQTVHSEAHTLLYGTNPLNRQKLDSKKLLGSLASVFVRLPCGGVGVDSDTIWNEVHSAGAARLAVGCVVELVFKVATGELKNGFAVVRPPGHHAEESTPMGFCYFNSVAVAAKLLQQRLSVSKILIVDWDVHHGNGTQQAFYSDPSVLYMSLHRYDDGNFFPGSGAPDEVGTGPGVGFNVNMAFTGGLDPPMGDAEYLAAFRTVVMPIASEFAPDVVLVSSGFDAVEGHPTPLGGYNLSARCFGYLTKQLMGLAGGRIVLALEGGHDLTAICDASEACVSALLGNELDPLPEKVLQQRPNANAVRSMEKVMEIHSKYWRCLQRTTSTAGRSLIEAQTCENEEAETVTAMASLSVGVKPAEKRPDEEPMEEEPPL
T4 sequence (O15379 whole entry): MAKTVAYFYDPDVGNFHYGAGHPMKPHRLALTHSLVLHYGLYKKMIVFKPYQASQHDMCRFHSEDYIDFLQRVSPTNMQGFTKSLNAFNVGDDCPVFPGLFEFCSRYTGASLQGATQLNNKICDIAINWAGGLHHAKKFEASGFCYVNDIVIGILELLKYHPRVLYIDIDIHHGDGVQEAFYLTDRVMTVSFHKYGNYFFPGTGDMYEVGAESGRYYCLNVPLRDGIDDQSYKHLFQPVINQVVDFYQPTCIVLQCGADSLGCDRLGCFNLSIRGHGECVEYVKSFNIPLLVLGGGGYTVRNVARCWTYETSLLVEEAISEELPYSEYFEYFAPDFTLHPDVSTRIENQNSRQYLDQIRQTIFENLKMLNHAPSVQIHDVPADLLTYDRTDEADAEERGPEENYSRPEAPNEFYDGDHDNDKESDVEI
Histone deacetylase 5, sequence (Q9UQL6 whole entry): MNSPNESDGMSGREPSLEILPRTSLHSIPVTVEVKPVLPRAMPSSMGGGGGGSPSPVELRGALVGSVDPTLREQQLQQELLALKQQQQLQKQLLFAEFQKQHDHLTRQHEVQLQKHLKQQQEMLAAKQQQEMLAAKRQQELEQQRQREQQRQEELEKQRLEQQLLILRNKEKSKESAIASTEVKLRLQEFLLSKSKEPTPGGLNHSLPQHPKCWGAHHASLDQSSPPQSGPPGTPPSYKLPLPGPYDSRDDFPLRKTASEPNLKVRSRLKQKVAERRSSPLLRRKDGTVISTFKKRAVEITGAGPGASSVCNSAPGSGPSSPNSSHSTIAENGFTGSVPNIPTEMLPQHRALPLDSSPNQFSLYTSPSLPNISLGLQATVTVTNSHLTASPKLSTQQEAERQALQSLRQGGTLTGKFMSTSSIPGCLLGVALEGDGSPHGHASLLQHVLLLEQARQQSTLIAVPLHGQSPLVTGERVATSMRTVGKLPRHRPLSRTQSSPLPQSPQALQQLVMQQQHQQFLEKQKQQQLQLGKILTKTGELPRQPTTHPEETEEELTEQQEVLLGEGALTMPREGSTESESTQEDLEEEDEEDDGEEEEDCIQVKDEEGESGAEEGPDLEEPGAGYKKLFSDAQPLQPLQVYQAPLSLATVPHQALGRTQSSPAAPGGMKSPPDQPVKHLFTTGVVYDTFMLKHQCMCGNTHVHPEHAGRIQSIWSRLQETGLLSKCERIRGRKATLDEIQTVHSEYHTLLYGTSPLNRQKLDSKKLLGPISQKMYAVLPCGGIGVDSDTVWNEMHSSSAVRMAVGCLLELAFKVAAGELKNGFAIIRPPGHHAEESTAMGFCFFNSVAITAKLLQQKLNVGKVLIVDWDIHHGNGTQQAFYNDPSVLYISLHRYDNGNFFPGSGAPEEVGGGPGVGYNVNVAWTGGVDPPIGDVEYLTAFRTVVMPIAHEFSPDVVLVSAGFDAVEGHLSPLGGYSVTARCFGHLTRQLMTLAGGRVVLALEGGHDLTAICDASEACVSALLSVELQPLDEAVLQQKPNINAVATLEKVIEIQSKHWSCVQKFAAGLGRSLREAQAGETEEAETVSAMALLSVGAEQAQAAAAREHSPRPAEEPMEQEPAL

Compound: Cc1onc(-c2ccccc2)c1C(=O)NCCCCCNC(=O)CS
- IC50 (Histone deacetylase 4): 10 µM
- IC50 (Histone deacetylase 5): 15 µM
- IC50 [1]: 0.26 µM
- IC50 (Histone deacetylase 1 [2]): 5.7 µM
- IC50 (Histone deacetylase 2 [3]): 28 µM

Compound: Cc1onc(-c2ccccc2)c1C(=O)NCCCCCNC(=O)[C@@H](C)S
- IC50 (Histone deacetylase 4): > 30 µM
- IC50 (Histone deacetylase 5): > 30 µM
- IC50 [1]: 0.28 µM
- IC50 (Histone deacetylase 1 [2]): > 30 µM
- IC50 (Histone deacetylase 2 [3]): > 30 µM

Compound: COC(=O)[C@@H](Cc1ccccn1)NC(=O)CCCCCCCC(=O)NO
- IC50 [1]: 4.01 µM
- IC50 (Histone deacetylase 1 [2]): 82.6 µM

Compound: COC(=O)[C@H](Cc1ccccn1)NC(=O)CCCCCCCC(=O)NO
- IC50 [1]: 4.06 µM
- IC50 (Histone deacetylase 1 [2]): 67.3 µM

Compound: CC(C)(C)OC(=O)Nc1ccc(-c2cc(C(=O)NCCCCCCC(=O)NO)no2)cc1
- IC50 (Histone deacetylase 3 [4]): 0.19 µM
- IC50 (Histone deacetylase 2 [5]): 0.093 µM
- IC50 (Histone deacetylase 1 [6]): 0.0127 µM

Compound: CCCCOc1ccc(CC(=O)NO)cc1 [BUFEXAMAC]
- Kd (Histone deacetylase 8): 235 µM
- Kd ([1]; read-out: Kd(app)): 10.7 µM
- Kd (Histone deacetylase 3 [7]): 341 µM
- Kd (Histone deacetylase 1 [2]; read-out: Kd(app)): > 1000 µM
- Kd (Histone deacetylase 2 [3]; read-out: Kd(app)): > 1000 µM
- Kd ([8]; read-out: Kd(app)): 12.3 µM

Compound: O=C(CCCCCCNC(=O)c1cnc(N(c2ccccc2)c2ccccc2)nc1)NO [RICOLINOSTAT]
- IC50 [8]: > 10 µM
